{
  "source": "patent US20090004677A1",
  "about": "“QUANTITATIVE DETERMINATION OF BCL10” (The Board of Trustees of the University of Illinois, priority 2007, published 2009)",
  "key": {"Bcl10": {"tested_on": "Bcl10", "assay": "solid-phase sandwich ELISA for Bcl10 in NCM460 cells", "format": "cell-based, human"}, "IL-8": {"tested_on": "IL-8", "assay": "ELISA for IL-8 in spent media of NCM460 cells", "format": "cell-based, human"}, "[1]": {"details": "NCM460 cells, 50 μM inhibitor 2 hours prior to 6 hours LPS 10 ng/ml"}, "[2]": {"details": "human IEC, LPS 10 ng/ml for 2-6 hours"}},
  "data": [
    {"molecule": "O=C(Nc1nc2ccccc2n1CCN1CCOCC1)c1cccc([N+](=O)[O-])c1", "note": "[IRAK 1/4 inhibitor, N-(2-morpholinylethyl)-2-(3-nitrobenzoylamido)-benzimidazole]", "values": [
      {"measurement": "Bcl10 after LPS with IRAK 1/4 inhibitor", "setting": "Bcl10; [1]", "value": "2.36 ± 0.08", "unit": "ng/mL"},
      {"measurement": "decline of the LPS-induced increase in Bcl10", "setting": "Bcl10; [1]", "value": 73, "unit": "%"},
      {"measurement": "effect on the LPS-induced increase in Bcl10 (result in words)", "setting": "Bcl10; [2]", "value": "eliminated"},
      {"measurement": "IL-8 after LPS with IRAK 1/4 inhibitor", "setting": "IL-8; [1]", "value": "1.14 ± 0.08", "unit": "ng/mL"},
      {"measurement": "decline of the LPS-induced increase in IL-8 response", "setting": "IL-8; [1]", "value": 60, "unit": "%"},
      {"measurement": "effect on the LPS-induced increase in IL-8 (result in words)", "setting": "IL-8; [2]", "value": "eliminated"}
    ]}
  ]
}
